Earlier results, collected in patent US20070009589A1, “EXTENDED RELEASE COMPOSITIONS” (priority 2005, published 2007).

Experiments:
[1] = in water

COCCc1ccc(OCC(O)CNC(C)C)cc1 (stereo not drawn) [Metoprolol]
Log P: 2.48 | water solubility [1]: low water solubility

COCCc1ccc(OCC(O)CNC(C)C)cc1 (racemic) [Metoprolol succinate, (±)-1-(isopropylamino)-3-[p-(2-methoxyethyl)phenoxy]-2-propanol succinate (2:1)]
water solubility [1]: freely soluble in water
